Measured values from ChEMBL document CHEMBL5576131, “Atropisomerism Observed in Galactose-Based Monosaccharide Inhibitors of Galectin-3 Comprising 2-Methyl-4-phenyl-2,4-dihydro-3H-1,2,4-triazole-3-thione” (J Med Chem, 2024).

Experiments:
Galectin-3 [1] = target: Galectin-3 (Homo sapiens, UniProt P17931); experiment: Inhibition of his-tagged N-terminal recombinant human Gal-3 preincubated for 30 mins followed by Biotin-ASF addition and measured after 1 hr by HTRF assay
Galectin-3 [2] = target: Galectin-3 (Mus musculus, UniProt P16110); experiment: Inhibition of his-tagged N-terminal recombinant mouse Gal-3 preincubated for 30 mins followed by Biotin-ASF addition and measured after 1 hr by HTRF assay
Chain of Galectin-3 (Mus musculus, UniProt P16110) (P16110 whole entry): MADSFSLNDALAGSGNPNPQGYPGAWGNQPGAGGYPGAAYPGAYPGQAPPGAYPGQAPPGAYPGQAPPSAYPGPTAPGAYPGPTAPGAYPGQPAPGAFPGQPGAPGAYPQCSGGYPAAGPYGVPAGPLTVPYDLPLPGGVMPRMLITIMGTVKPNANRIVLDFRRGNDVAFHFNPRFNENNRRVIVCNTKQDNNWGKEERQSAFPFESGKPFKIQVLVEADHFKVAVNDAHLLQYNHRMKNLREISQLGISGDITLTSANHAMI

[3] = Permeability of the compound at pH 5.5 incubated for 4 hrs by PAMPA; assay type: ADME; settings: for Papp at 4 h: PAMPA, pH 5.5, read-out: permeability
[4] = Permeability of the compound at pH 7.4 incubated for 4 hrs by PAMPA; assay type: ADME; settings: for Papp at 4 h: PAMPA, pH 7.4, read-out: permeability; for permeability: pampa, pH 7.4, 4 h
Galectin-1 = Galectin-1 (Homo sapiens, UniProt P09382); experiment: Inhibition of his-tagged N-terminal human Gal-1 preincubated for 30 mins followed by Biotin-ASF addition and measured after 1 hr by HTRF assay
Chain of Galectin-1 (P09382 whole entry): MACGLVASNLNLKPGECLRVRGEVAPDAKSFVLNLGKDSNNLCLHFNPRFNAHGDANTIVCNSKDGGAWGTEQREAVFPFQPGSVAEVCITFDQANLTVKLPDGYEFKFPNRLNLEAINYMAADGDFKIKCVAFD

Galectin-9 = Galectin-9 (Homo sapiens, UniProt O00182); experiment: Inhibition of his-tagged N-terminal human Gal-9 preincubated for 30 mins followed by Biotin-ASF addition and measured after 1 hr by HTRF assay
Chain of Galectin-9 (O00182 whole entry): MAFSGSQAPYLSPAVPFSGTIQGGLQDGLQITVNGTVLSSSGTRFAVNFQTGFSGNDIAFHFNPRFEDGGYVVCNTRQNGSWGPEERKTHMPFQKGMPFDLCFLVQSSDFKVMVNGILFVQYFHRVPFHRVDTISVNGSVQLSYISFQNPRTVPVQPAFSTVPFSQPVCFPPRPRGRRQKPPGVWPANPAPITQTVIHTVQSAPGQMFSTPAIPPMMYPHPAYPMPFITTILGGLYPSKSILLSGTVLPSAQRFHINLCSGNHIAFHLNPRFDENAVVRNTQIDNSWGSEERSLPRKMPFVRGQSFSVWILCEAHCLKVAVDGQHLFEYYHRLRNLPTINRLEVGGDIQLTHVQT

[5] = Cmax in male C57BL/6 mouse at 10 mg/kg, po measured after 24 hrs by UPLC/MS/MS analysis; assay type: ADME, organism-based; settings: in vivo
[6] = Tmax in male C57BL/6 mouse at 10 mg/kg, po measured after 24 hrs by UPLC/MS/MS analysis; assay type: ADME, organism-based; settings: in vivo
[7] = AUC (0 to 24 hrs) in male C57BL/6 mouse at 10 mg/kg, po measured after 24 hrs by UPLC/MS/MS analysis; assay type: ADME, organism-based; settings: in vivo
[8] = Permeability of the compound in human Caco-2 cells across apical to basolateral side at pH 7.4 incubated for 2 hrs by LC-MS/MS analysis; assay type: ADME, cell-based; settings: Caco-2, pH 7.4, read-out: permeability
[9] = Permeability of the compound in human Caco-2 cells across basolateral to apical side at pH 7.4 incubated for 2 hrs by LC-MS/MS analysis; assay type: ADME, cell-based; settings: Caco-2, pH 7.4, read-out: permeability
[10] = Permeability of the compound across apical to basolateral side in human Caco-2 cells assessed as drug recovery at pH 7.4 incubated for 2 hrs by LC-MS/MS analysis; assay type: ADME, cell-based; settings: Caco-2, pH 7.4, read-out: Drug recovery
[11] = Permeability of the compound across basolateral to apical side in human Caco-2 cells assessed as drug recovery at pH 7.4 incubated for 2 hrs by LC-MS/MS analysis; assay type: ADME, cell-based; settings: Caco-2, pH 7.4, read-out: Drug recovery

Chain of Galectin-3 (Homo sapiens, UniProt P17931) (P17931 whole entry): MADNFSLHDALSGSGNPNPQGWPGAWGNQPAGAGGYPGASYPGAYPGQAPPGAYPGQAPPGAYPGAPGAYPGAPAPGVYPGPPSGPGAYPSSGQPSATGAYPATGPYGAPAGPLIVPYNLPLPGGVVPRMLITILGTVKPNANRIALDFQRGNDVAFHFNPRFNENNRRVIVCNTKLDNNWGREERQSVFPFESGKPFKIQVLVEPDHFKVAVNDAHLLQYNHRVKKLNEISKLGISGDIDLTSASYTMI

SMILES	IC50 (Galectin-3 [1]) [nM]	IC50 (Galectin-3 [2]) [nM]	Papp at 4 h [3] [×10⁻⁶ cm/s]	Papp at 4 h [4] [×10⁻⁶ cm/s]	other results
CO[C@@H]1[C@@H](n2cc(-c3ccc(Br)c(F)c3)nn2)[C@@H](O)[C@@H](CO)O[C@H]1c1nncn1-c1cc(Cl)ccc1C(F)(F)F	22	71	20	22	
CO[C@@H]1[C@@H](n2cc(-c3cc(F)c(Cl)c(F)c3)nn2)[C@@H](O)[C@@H](CO)O[C@H]1c1nncn1-c1cc(Cl)ccc1C(F)(F)F		160			IC50 (Galectin-1): 7000 nM; IC50 (Galectin-9): 7000 nM
OC[C@H]1O[C@@H](c2nncn2-c2cc(Cl)ccc2C(F)(F)F)[C@H](O)[C@@H](n2cc(-c3ccc(Br)c(F)c3F)nn2)[C@H]1O		69	7	7	
OC[C@H]1O[C@@H](c2nncn2-c2cc(Cl)ccc2OC(F)(F)F)[C@H](O)[C@@H](n2cc(-c3ccc(Br)c(F)c3F)nn2)[C@H]1O		62	21	18	
Cn1nc([C@@H]2O[C@H](CO)[C@H](O)[C@H](n3cc(-c4ccc(Br)c(F)c4F)nn3)[C@H]2O)n(-c2cc(Cl)ccc2C(F)(F)F)c1=S (stereo in doubt; 20)		40	12		Cmax [5]: 1900 nM; Tmax [6]: 3 h; AUC(0-t) at 24 h [7]: 12 µM·h; permeability ([4]; 4 h): 8.6 ×10⁻⁶ cm/s; IC50 (Galectin-1): 2400 nM; IC50 (Galectin-9): 7200 nM; Papp A→B at 2 h [8]: < 1.5 ×10⁻⁶ cm/s; Papp B→A at 2 h [9]: 15 ×10⁻⁶ cm/s; recovery at 2 h [10]: 59%; recovery at 2 h [11]: 80%
OC[C@H]1O[C@H](Sc2ccc(Cl)c(Cl)c2)[C@H](O)[C@@H](n2cc(-c3cc(F)c(F)c(F)c3)nn2)[C@H]1O					Cmax [5]: 6300 nM; Tmax [6]: 7 h; AUC(0-t) at 24 h [7]: 84 µM·h
Cc1nnc([C@@H]2O[C@H](CO)[C@H](O)[C@H](n3cc(-c4cc(F)c(Cl)c(F)c4)nn3)[C@H]2O)n1-c1cc(Cl)ccc1C(F)(F)F (stereo in doubt; 4)		67			permeability ([4]; 4 h): 4.4 ×10⁻⁶ cm/s; IC50 (Galectin-1): 2500 nM; IC50 (Galectin-9): 4000 nM
OC[C@H]1O[C@@H](c2nncn2-c2cc(Cl)ccc2C(F)(F)F)[C@H](O)[C@@H](n2cc(-c3ccc(Cl)c(F)c3)nn2)[C@H]1O		100	1.8	2.1	
CO[C@@H]1[C@@H](n2cc(-c3ccc(Br)c(F)c3F)nn2)[C@@H](O)[C@@H](CO)O[C@H]1c1nncn1-c1cc(Cl)ccc1C(F)(F)F	9	52	33	28	
OC[C@H]1O[C@@H](c2nncn2-c2cc(Cl)ccc2C(F)(F)F)[C@H](OCC(F)(F)C(F)F)[C@@H](n2cc(-c3ccc(Br)c(F)c3F)nn2)[C@H]1O		110	68	88	
OC[C@H]1O[C@@H](c2nncn2-c2cc(Cl)ccc2OC(F)(F)F)[C@H](O)[C@@H](n2cc(-c3ccc(Cl)c(F)c3F)nn2)[C@H]1O	13	100		27	
Cc1nnc([C@@H]2O[C@H](CO)[C@H](O)[C@H](n3cc(-c4cc(F)c(Cl)c(F)c4)nn3)[C@H]2O)n1-c1cc(Cl)ccc1C(F)(F)F (stereo in doubt; 5)	1300	7000			permeability ([4]; 4 h): 1.6 ×10⁻⁶ cm/s
OC[C@H]1O[C@@H](c2ncnn2-c2ccc(Cl)c(Cl)c2)[C@H](O)[C@@H](n2cc(-c3cc(F)c(F)c(F)c3)nn2)[C@H]1O					Cmax [5]: 410 nM; Tmax [6]: 3 h; AUC(0-t) at 24 h [7]: 1.8 µM·h
Cn1nc([C@@H]2O[C@H](CO)[C@H](O)[C@H](n3cc(-c4ccc(Br)c(F)c4F)nn3)[C@H]2O)n(-c2cc(Cl)ccc2C(F)(F)F)c1=S (stereo in doubt; 21)		3800			permeability ([3]; pampa, pH 5.5, 4 h, 4 h): 22 ×10⁻⁶ cm/s; permeability ([4]; 4 h): 28 ×10⁻⁶ cm/s
OC[C@H]1O[C@@H](c2n[nH]c(=S)n2-c2cc(Cl)ccc2C(F)(F)F)[C@H](O)[C@@H](n2cc(-c3ccc(Br)c(F)c3F)nn2)[C@H]1O (stereo in doubt; 18)	6.9	25		0.1	
OC[C@H]1O[C@@H](c2n[nH]c(=S)n2-c2cc(Cl)ccc2OC(F)(F)F)[C@H](O)[C@@H](n2cc(-c3ccc(Cl)c(F)c3F)nn2)[C@H]1O (stereo in doubt; 17)	70	720			permeability [4]: 0.2 ×10⁻⁶ cm/s
CO[C@@H]1[C@@H](n2cc(-c3ccc(Cl)c(F)c3F)nn2)[C@@H](O)[C@@H](CO)O[C@H]1c1nncn1-c1cc(Cl)ccc1OC(F)(F)F		100	54	49	Cmax [5]: 3000 nM; Tmax [6]: 3 h; AUC(0-t) at 24 h [7]: 16 µM·h; IC50 (Galectin-1): 2000 nM; IC50 (Galectin-9): 2400 nM
OC[C@H]1O[C@@H](c2n[nH]c(=S)n2-c2cc(Cl)ccc2C(F)(F)F)[C@H](O)[C@@H](n2cc(-c3ccc(Br)c(F)c3F)nn2)[C@H]1O (stereo in doubt; 19)	76	1000			permeability ([4]; 4 h): 0.2 ×10⁻⁶ cm/s
Cc1nc([C@@H]2O[C@H](CO)[C@H](O)[C@H](n3cc(-c4cc(F)c(Cl)c(F)c4)nn3)[C@H]2O)n(-c2cc(Cl)ccc2C(F)(F)F)n1					Tmax [6]: 3 h
OC[C@H]1O[C@@H](c2nncn2-c2cc(Cl)ccc2Cl)[C@H](O)[C@@H](n2cc(-c3cc(F)c(Cl)c(F)c3)nn2)[C@H]1O		350	3.6	1.7	
OC[C@H]1O[C@@H](c2n[nH]c(=S)n2-c2cc(Cl)ccc2OC(F)(F)F)[C@H](O)[C@@H](n2cc(-c3ccc(Cl)c(F)c3F)nn2)[C@H]1O (stereo in doubt; 16)	7	50	1.1	0.2	Papp A→B at 2 h [8]: < 1.5 ×10⁻⁶ cm/s; Papp B→A at 2 h [9]: 3.2 ×10⁻⁶ cm/s; recovery at 2 h [10]: 67%; recovery at 2 h [11]: 81%
